# Source: ChEMBL document CHEMBL1141622, “Carbonic anhydrase inhibitors: interactions of phenols with the 12 catalytically active mammalian isoforms (CA I-XIV)” (Bioorg Med Chem Lett, 2008)
# Columns and labels:
# [1] = target: Carbonic anhydrase 3 (Homo sapiens) (UniProt P07451)
# Description: Inhibition of human recombinant full length carbonic hydrase 3 by stopped-flow assay
# [2] = target: Carbonic anhydrase 13 (Mus musculus) (UniProt Q9D6N1); experiment: Inhibition of mouse recombinant full length carbonic hydrase 13 by stopped-flow assay
# [3] = target: Carbonic anhydrase 6 (Homo sapiens) (UniProt P23280)
# Chain of Carbonic anhydrase 6 (Homo sapiens) (P23280 whole entry): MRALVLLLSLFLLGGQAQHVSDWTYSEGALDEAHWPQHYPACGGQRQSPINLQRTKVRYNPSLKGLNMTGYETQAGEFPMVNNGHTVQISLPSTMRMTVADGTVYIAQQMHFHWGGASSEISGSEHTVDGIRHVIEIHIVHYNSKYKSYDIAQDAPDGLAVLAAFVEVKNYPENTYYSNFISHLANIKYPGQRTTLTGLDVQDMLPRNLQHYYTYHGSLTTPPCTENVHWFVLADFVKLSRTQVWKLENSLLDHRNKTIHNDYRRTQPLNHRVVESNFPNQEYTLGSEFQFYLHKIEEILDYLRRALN
# Description: Inhibition of human recombinant full length carbonic hydrase 6 by stopped-flow assay
# [4] = target: Carbonic anhydrase 5A, mitochondrial (Homo sapiens) (UniProt P35218)
# Chain of Carbonic anhydrase 5A, mitochondrial (Homo sapiens) (P35218 whole entry): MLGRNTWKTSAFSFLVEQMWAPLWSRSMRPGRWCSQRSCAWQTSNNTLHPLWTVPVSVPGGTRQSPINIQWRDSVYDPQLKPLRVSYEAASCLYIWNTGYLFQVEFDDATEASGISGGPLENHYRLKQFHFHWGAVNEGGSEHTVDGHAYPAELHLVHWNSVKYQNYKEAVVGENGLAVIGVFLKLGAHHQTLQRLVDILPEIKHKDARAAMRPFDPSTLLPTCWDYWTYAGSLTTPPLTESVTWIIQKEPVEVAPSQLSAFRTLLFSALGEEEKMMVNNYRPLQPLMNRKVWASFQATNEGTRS
# Description: Inhibition of human recombinant full length carbonic hydrase 5A by stopped-flow assay
# [5] = target: Carbonic anhydrase 14 (Homo sapiens) (UniProt Q9ULX7)
# Chain of Carbonic anhydrase 14 (Homo sapiens) (Q9ULX7 whole entry): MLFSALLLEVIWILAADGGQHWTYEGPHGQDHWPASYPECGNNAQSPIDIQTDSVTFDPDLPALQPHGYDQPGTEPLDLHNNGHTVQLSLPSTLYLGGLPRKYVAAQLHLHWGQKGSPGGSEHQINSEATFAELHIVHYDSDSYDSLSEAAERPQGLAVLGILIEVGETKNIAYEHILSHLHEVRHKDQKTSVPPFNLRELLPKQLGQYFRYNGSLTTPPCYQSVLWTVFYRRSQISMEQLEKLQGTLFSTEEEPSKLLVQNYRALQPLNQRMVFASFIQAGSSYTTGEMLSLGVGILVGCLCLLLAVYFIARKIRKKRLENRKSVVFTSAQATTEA
# Description: Inhibition of human recombinant full length carbonic hydrase 14 by stopped-flow assay
# [6] = target: Carbonic anhydrase 9 (Homo sapiens) (UniProt Q16790)
# Description: Inhibition of human catalytic domain carbonic hydrase 9 by stopped-flow assay
# [7] = target: Carbonic anhydrase 7 (Homo sapiens) (UniProt P43166)
# Chain of Carbonic anhydrase 7 (Homo sapiens) (P43166 whole entry): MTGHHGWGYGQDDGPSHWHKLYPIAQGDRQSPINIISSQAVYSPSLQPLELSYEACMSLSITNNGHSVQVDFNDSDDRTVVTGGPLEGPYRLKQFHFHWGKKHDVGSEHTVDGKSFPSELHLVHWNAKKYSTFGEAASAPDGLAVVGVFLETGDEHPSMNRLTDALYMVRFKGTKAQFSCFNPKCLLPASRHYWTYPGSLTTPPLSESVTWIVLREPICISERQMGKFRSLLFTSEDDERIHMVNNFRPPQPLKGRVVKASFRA
# Description: Inhibition of human recombinant full length carbonic hydrase 7 by stopped-flow assay
# [8] = target: Carbonic anhydrase 12 (Homo sapiens) (UniProt O43570)
# Chain of Carbonic anhydrase 12 (Homo sapiens) (O43570 whole entry): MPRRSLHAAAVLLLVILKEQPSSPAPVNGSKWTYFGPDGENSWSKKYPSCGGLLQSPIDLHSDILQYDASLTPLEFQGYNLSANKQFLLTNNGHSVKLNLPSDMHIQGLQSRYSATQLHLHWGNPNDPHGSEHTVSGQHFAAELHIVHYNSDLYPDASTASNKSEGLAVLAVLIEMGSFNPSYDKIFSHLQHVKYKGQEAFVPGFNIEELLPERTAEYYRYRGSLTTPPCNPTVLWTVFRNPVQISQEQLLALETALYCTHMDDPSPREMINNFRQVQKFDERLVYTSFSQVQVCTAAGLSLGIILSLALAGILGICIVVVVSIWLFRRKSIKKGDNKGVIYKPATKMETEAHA
# Description: Inhibition of human catalytic domain carbonic hydrase 12 by stopped-flow assay
# [9] = target: Carbonic anhydrase 2 (Homo sapiens) (UniProt P00918)
# Description: Inhibition of human recombinant full length carbonic hydrase 2 by stopped-flow assay
# [10] = target: Carbonic anhydrase 1 (Homo sapiens) (UniProt P00915)
# Chain of Carbonic anhydrase 1 (Homo sapiens) (P00915 2-261 limits assumed): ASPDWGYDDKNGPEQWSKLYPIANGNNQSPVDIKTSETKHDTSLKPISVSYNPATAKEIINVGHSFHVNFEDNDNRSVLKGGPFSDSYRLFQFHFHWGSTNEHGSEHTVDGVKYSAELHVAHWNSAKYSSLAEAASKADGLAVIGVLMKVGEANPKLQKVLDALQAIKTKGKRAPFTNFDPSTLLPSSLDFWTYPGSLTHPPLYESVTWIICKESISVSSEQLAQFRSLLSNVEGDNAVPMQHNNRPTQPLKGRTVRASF
# Description: Inhibition of human recombinant full length carbonic hydrase 1 by stopped-flow assay
# [11] = target: Carbonic anhydrase 4 (Homo sapiens) (UniProt P22748)
# Chain of Carbonic anhydrase 4 (Homo sapiens) (P22748 whole entry): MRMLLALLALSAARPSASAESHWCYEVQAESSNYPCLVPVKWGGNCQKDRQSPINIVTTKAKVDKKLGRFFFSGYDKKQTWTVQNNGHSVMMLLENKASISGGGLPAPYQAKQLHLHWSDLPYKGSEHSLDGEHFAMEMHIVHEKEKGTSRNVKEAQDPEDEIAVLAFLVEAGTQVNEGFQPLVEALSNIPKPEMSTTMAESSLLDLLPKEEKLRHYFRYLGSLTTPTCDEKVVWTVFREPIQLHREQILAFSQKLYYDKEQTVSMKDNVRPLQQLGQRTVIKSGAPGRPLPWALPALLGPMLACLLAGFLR
# Description: Inhibition of human recombinant full length carbonic hydrase 4 by stopped-flow assay
# [12] = target: Carbonic anhydrase 5B, mitochondrial (Homo sapiens) (UniProt Q9Y2D0)
# Chain of Carbonic anhydrase 5B, mitochondrial (Homo sapiens) (Q9Y2D0 whole entry): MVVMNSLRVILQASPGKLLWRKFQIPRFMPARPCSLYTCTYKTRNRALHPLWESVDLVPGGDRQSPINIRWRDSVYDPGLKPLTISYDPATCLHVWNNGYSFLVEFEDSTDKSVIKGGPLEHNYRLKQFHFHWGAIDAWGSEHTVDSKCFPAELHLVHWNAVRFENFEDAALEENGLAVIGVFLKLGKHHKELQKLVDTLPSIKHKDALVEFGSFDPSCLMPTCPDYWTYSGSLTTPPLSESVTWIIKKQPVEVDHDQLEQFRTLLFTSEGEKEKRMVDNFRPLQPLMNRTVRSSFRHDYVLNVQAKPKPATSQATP
# Description: Inhibition of human recombinant full length carbonic hydrase 5B by stopped-flow assay
# Chain of Carbonic anhydrase 13 (Mus musculus) (Q9D6N1 whole entry, looked up): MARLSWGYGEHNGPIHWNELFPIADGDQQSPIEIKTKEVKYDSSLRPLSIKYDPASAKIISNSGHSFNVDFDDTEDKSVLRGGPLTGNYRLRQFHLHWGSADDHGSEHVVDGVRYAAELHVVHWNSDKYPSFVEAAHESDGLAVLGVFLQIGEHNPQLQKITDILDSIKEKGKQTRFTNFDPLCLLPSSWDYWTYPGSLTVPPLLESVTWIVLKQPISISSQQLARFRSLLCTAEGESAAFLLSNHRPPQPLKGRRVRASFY
# Chain of Carbonic anhydrase 3 (Homo sapiens) (P07451 whole entry): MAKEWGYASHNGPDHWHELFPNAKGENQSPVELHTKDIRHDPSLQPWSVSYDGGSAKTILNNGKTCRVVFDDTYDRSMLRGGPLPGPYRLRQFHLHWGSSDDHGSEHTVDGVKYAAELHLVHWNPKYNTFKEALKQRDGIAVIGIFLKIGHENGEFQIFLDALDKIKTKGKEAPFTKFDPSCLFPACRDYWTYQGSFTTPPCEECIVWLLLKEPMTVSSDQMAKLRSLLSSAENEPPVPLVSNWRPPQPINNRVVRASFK
SMILES,Ki [1] [µM],Kinact [2] [µM],Ki [3] [µM],Ki [4] [µM],Kinact [5] [µM],Kinact [6] [µM],Kinact [7] [µM],Kinact [8] [µM],Ki [9] [µM],Ki [10] [µM],Ki [11] [µM],Ki [12] [µM]
CC(=O)/N=c1/sc(S(N)(=O)=O)nn1C,710,0.019,0.01,0.065,,,,,,,,
Oc1c(I)cc(Cl)c2cccnc12,3.3,4.9,5.3,8.3,5,5.6,16,8.1,6.5,6.6,5.4,
Oc1cc(F)cc(F)c1,0.71,84.2,82.6,65,10.6,9.4,163,70.2,33.9,38.8,10.7,98.4
